{
  "source": "patent US7820623B2",
  "about": "(priority 2006, dated 2010)",
  "key": {"[1]": {"biological_target": "T1, human Kv1.3 (Homo sapiens, UniProt P22001)", "T1 sequence (P22001 whole entry)": "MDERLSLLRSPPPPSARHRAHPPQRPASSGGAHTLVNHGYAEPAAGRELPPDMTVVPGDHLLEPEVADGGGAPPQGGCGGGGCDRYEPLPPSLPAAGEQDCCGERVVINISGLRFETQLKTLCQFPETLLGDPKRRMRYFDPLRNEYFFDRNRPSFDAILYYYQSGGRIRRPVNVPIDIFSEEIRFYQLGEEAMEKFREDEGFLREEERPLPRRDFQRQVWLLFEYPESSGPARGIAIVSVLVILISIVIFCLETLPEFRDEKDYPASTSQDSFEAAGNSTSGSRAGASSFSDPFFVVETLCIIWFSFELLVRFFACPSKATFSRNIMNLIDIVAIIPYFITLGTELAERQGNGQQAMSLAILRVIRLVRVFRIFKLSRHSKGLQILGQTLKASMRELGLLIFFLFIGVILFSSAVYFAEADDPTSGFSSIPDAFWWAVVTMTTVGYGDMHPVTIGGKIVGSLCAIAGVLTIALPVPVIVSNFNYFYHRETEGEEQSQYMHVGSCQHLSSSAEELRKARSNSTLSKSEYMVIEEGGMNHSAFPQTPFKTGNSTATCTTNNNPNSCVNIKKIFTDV", "test": "cell-based"}, "[2]": {"biological_target": "T2, human Kv1.3 (CHO) (Homo sapiens, UniProt P22001)", "T2 construct": "expressed in transfected cells", "T2 sequence (P22001 whole entry)": "as above", "test": "cell-based", "format": "cell-based"}, "[3]": {"system": "thapsigargin-induced IFN-g production in human whole blood", "format": "cell-based", "settings": "for IC50: read-out: Analogue Activity (IC50) WB/IFNg"}, "[4]": {"biological_target": "T3, human Kv1.1 (HEK293) (Homo sapiens, UniProt Q09470)", "T3 construct": "expressed in transfected cells; host or cells: HEK293", "T3 sequence (Q09470 whole entry)": "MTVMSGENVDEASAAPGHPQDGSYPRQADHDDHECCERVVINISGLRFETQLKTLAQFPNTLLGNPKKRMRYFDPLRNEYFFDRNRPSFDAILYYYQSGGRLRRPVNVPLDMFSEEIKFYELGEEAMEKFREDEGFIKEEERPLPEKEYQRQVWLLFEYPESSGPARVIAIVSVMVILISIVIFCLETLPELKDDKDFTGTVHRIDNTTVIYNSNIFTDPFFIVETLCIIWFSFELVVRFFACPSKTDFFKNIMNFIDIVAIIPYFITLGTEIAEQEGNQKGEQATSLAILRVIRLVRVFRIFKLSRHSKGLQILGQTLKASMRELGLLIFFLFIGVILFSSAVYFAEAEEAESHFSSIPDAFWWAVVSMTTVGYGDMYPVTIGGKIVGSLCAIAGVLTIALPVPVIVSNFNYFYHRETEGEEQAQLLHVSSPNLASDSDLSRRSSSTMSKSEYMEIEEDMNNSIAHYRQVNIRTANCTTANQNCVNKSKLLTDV", "test": "cell-based"}, "[5]": {"system": "thapsigargin-induced IL-2 production in human whole blood"}, "[6]": {"biological_target": "T1, human Kv1.3", "format": "cell-based", "design": "expressed in transfected cells", "settings": "read-out: IC50 on CHO/Kv1.3"}, "[7]": {"settings": "read-out: IC50 for block of the outward potassium current"}},
  "note": "Where two headings read alike, the source gives them in different places. Bridge positions count the residues as written; N and C are the ends. Square brackets hold non-standard residues; d marks the D form. Peptide text beside a SMILES is read from it. 1Nal = N[C@@H](Cc1cccc2ccccc12)C(=O)O",
  "data": [
    {"compound": "E. coli-derived Fc-L-ShK[2-35]", "values": [
      {"measurement": "IC50", "setting": "[1]; read-out: Kv1.3 IC50 by WCVC", "value": 1.3, "unit": "nM"},
      {"measurement": "IC50", "setting": "[2]; read-out: Kv1.3 IC50 by IWQ", "value": 2.8, "unit": "nM"}
    ]},
    {"compound": "Fc-L-KTX1: Fc-linker fusion of Kaliotoxin1 (KTX1)", "values": [
      {"measurement": "block of human Kv1.3 current", "setting": "[1]", "value": "blocked the human Kv1.3 current in a dose-dependent fashion"}
    ]},
    {"compound": "E. coli-derived Fc-L-ShK[1-35]", "values": [
      {"measurement": "IC50", "setting": "[1]; read-out: Kv1.3 IC50 by WCVC", "value": 1.4, "unit": "nM"}
    ]},
    {"compound": "Fc-L5-ShK[2-35]: human IgG1 Fc fused via 5 amino acid linker to ShK[2-35]", "values": [
      {"measurement": "IC50", "setting": "[1]; [7]", "value": 0.1, "unit": "nM"}
    ]},
    {"compound": "E. coli-derived Fc-L-OSK1", "values": [
      {"measurement": "IC50", "setting": "[1]; read-out: Kv1.3 IC50 by WCVC", "value": 3.2, "unit": "nM"}
    ]},
    {"compound": "CC[C@H](C)[C@@H]1NC(=O)[C@H](CCCCN)NC(=O)[C@@H](NC(=O)[C@H](CCCCN)NC(=O)[C@@H](NC(=O)[C@H](CC(N)=O)NC(=O)[C@@H](NC(=O)[C@@H](NC(=O)[C@@H](NC(=O)CN)C(C)C)[C@@H](C)CC)[C@@H](C)CC)C(C)C)CSSC[C@@H]2NC(=O)[C@H](CCCCN)NC(=O)CNC(=O)[C@H](Cc3ccccc3)NC(=O)[C@H](CCCNC(=N)N)NC(=O)[C@H](CCSC)NC(=O)CNC(=O)[C@H](C)NC(=O)[C@H](CCCCN)NC(=O)[C@H](CCCCN)NC(=O)[C@@H]3CSSC[C@@H](C(=O)N[C@H](C(=O)N4CCC[C@H]4C(=O)N[C@@H](CCCCN)C(=O)O)[C@@H](C)O)NC(=O)[C@H](Cc4c[nH]cn4)NC(=O)[C@H](CSSC[C@H](NC(=O)[C@H](CCC(N)=O)NC(=O)[C@H](CCCNC(=N)N)NC(=O)[C@H](CO)NC1=O)C(=O)N[C@@H](CC(C)C)C(=O)N[C@@H](CCC(=O)O)C(=O)N1CCC[C@H]1C(=O)N3)NC(=O)[C@H](CCCCN)NC(=O)CNC(=O)[C@H](Cc1cccc3ccccc13)NC(=O)[C@H](CCSC)NC2=O", "note": "[N30Nal] (H-GVIINVKCKISRQCLEPCKKAGMRFGKCM[1Nal]GKCHCTPK-OH; disulfide 8-28, 14-33, 18-35)", "values": [
      {"measurement": "IC50", "setting": "[2]", "value": "> 3.33", "unit": "nM"},
      {"measurement": "IC50", "setting": "[3]", "value": 37, "unit": "nM"}
    ]},
    {"compound": "CC[C@H](C)[C@@H]1NC(=O)[C@H](CCCCN)NC(=O)[C@@H](NC(=O)[C@H](CCCCN)NC(=O)[C@@H](NC(=O)[C@H](CC(N)=O)NC(=O)[C@@H](NC(=O)[C@@H](NC(=O)[C@@H](NC(=O)CN)C(C)C)[C@@H](C)CC)[C@@H](C)CC)C(C)C)CSSC[C@@H]2NC(=O)[C@H](CCCCN)NC(=O)CNC(=O)[C@H](Cc3ccccc3)NC(=O)[C@H](CCCNC(=N)N)NC(=O)[C@H](CCSC)NC(=O)CNC(=O)[C@H](Cc3cccc4ccccc34)NC(=O)[C@H](CCCCN)NC(=O)[C@H](CCCCN)NC(=O)[C@@H]3CSSC[C@@H](C(=O)N[C@H](C(=O)N4CCC[C@H]4C(=O)N[C@@H](CCCCN)C(=O)O)[C@@H](C)O)NC(=O)[C@H](Cc4c[nH]cn4)NC(=O)[C@H](CSSC[C@H](NC(=O)[C@H](CCC(N)=O)NC(=O)[C@H](CCCNC(=N)N)NC(=O)[C@H](CO)NC1=O)C(=O)N[C@@H](CC(C)C)C(=O)N[C@@H](CCC(=O)O)C(=O)N1CCC[C@H]1C(=O)N3)NC(=O)[C@H](CCCCN)NC(=O)CNC(=O)[C@H](CC(N)=O)NC(=O)[C@H](CCSC)NC2=O", "note": "[A21Nal] (H-GVIINVKCKISRQCLEPCKK[1Nal]GMRFGKCMNGKCHCTPK-OH; disulfide 8-28, 14-33, 18-35)", "values": [
      {"measurement": "IC50", "setting": "[4]", "value": "< 0.00152", "unit": "nM"},
      {"measurement": "IC50", "setting": "[5]; read-out: Analogue Activity (IC50) WB/IL-2", "value": 0.315, "unit": "nM"},
      {"measurement": "IC50", "setting": "[2]", "value": 0.0261, "unit": "nM"},
      {"measurement": "IC50", "setting": "[3]", "value": 0.434, "unit": "nM"}
    ]},
    {"compound": "Fc-L10-ShK[2-35]: human IgG1 Fc fused via 10 amino acid linker to ShK[2-35]", "values": [
      {"measurement": "stability in whole blood", "setting": "[5]", "value": "stable in whole blood"},
      {"measurement": "thapsigargin-induced IL-2 production in human whole blood", "setting": "[5]", "value": "suppressed"},
      {"measurement": "times more potent than cyclosporine A in blocking IL-2 production (IC50)", "setting": "[5]", "value": "more than 200 times"},
      {"measurement": "IC50", "setting": "[1]; [7]", "value": "0.115 ± 0.018", "unit": "nM"},
      {"measurement": "thapsigargin-induced IFN-g production in human whole blood", "setting": "[3]", "value": "suppressed"}
    ]},
    {"compound": "CC[C@H](C)[C@@H]1NC(=O)[C@H](CCCCN)NC(=O)[C@@H](NC(=O)[C@H](CCCCN)NC(=O)[C@@H](NC(=O)[C@H](CC(N)=O)NC(=O)[C@@H](NC(=O)[C@@H](NC(=O)[C@@H](NC(=O)CN)C(C)C)[C@@H](C)CC)[C@@H](C)CC)C(C)C)CSSC[C@@H]2NC(=O)[C@H](CCCCN)NC(=O)CNC(=O)[C@H](Cc3ccccc3)NC(=O)[C@H](CCCNC(=N)N)NC(=O)[C@H](CCSC)NC(=O)CNC(=O)[C@H](C)NC(=O)[C@H](CCCCN)NC(=O)[C@H](CCCCN)NC(=O)[C@@H]3CSSC[C@@H](C(=O)N[C@H](C(=O)N4CCC[C@H]4C(=O)N[C@@H](CCCCN)C(=O)O)[C@@H](C)O)NC(=O)[C@H](Cc4c[nH]cn4)NC(=O)[C@H](CSSC[C@H](NC(=O)[C@H](CCC(N)=O)NC(=O)[C@H](CCCNC(=N)N)NC(=O)[C@H](CCC(=O)O)NC1=O)C(=O)N[C@@H](CC(C)C)C(=O)N[C@@H](CCC(=O)O)C(=O)N1CCC[C@H]1C(=O)N3)NC(=O)[C@H](CCCCN)NC(=O)CNC(=O)[C@H](CC(N)=O)NC(=O)[C@H](CCSC)NC2=O", "note": "[S11E] (H-GVIINVKCKIERQCLEPCKKAGMRFGKCMNGKCHCTPK-OH; disulfide 8-28, 14-33, 18-35)", "values": [
      {"measurement": "IC50", "setting": "[4]", "value": "> 3.33", "unit": "nM"},
      {"measurement": "IC50", "setting": "[2]", "value": "> 3.33", "unit": "nM"}
    ]},
    {"compound": "CC[C@H](C)[C@@H]1NC(=O)[C@@H](NC(=O)[C@@H](N)CO)CSSC[C@@H](C(=O)O)NC(=O)[C@H]([C@@H](C)O)NC(=O)CNC(=O)[C@@H]2CSSC[C@@H]3NC(=O)[C@H](CCC(N)=O)NC(=O)[C@H](Cc4ccccc4)NC(=O)[C@H](C)NC(=O)[C@H]([C@@H](C)O)NC(=O)[C@H](CSSC[C@H](NC(=O)[C@H](Cc4ccccc4)NC(=O)[C@H](CO)NC(=O)[C@H](CC(C)C)NC(=O)[C@H](CCCNC(=N)N)NC(=O)[C@H](Cc4ccc(O)cc4)NC(=O)[C@H](CCCCN)NC(=O)[C@H](CCSC)NC(=O)[C@H](CO)NC(=O)[C@H](Cc4c[nH]cn4)NC(=O)[C@H](CCCCN)NC3=O)C(=O)N[C@@H](CCCNC(=N)N)C(=O)N[C@@H](CCCCN)C(=O)N[C@@H]([C@@H](C)O)C(=O)N2)NC(=O)[C@H](CCCNC(=N)N)NC(=O)[C@H](CO)NC(=O)[C@H](CCCCN)NC(=O)[C@@H]2CCCN2C(=O)[C@H]([C@@H](C)CC)NC(=O)[C@H]([C@@H](C)O)NC(=O)[C@H](CC(=O)O)NC1=O", "note": "[ShK[2-35]] (H-SCIDTIPKSRCTAFQCKHSMKYRLSFCRKTCGTC-OH; disulfide 2-34, 11-27, 16-31)", "values": [
      {"measurement": "IC50", "setting": "[1]", "value": "0.049 ± 0.005", "unit": "nM"}
    ]},
    {"compound": "CC[C@H](C)[C@@H]1NC(=O)[C@H](CCCCN)NC(=O)[C@@H](NC(=O)[C@H](CCCCN)NC(=O)[C@@H](NC(=O)[C@H](CC(N)=O)NC(=O)[C@@H](NC(=O)[C@@H](NC(=O)[C@@H](NC(=O)CN)C(C)C)[C@@H](C)CC)[C@@H](C)CC)C(C)C)CSSC[C@@H]2NC(=O)[C@H](CCCCN)NC(=O)CNC(=O)[C@H](Cc3ccccc3)NC(=O)[C@H](CCCNC(=N)N)NC(=O)[C@H](CCSC)NC(=O)CNC(=O)[C@H](C)NC(=O)[C@H](CCCCN)NC(=O)[C@H](CCCCN)NC(=O)[C@@H]3CSSC[C@@H](C(=O)N[C@H](C(=O)N4CCC[C@H]4C(=O)N[C@@H](CCCCN)C(=O)O)[C@@H](C)O)NC(=O)[C@H](Cc4c[nH]cn4)NC(=O)[C@H](CSSC[C@H](NC(=O)[C@H](CCC(N)=O)NC(=O)[C@H](CCCNC(=N)N)NC(=O)[C@H](CO)NC1=O)C(=O)N[C@@H](CC(C)C)C(=O)N[C@@H](CCC(=O)O)C(=O)N1CCC[C@H]1C(=O)N3)NC(=O)[C@H](CCCCN)NC(=O)CNC(=O)[C@H](CC(N)=O)NC(=O)[C@H](C)NC2=O", "note": "[OSK1[Ala-29]] (H-GVIINVKCKISRQCLEPCKKAGMRFGKCANGKCHCTPK-OH; disulfide 8-28, 14-33, 18-35)", "values": [
      {"measurement": "potency relative to cyclosporin A in blocking the cytokine response", "setting": "[5]", "value": "several orders of magnitude more potent"},
      {"measurement": "IC50", "setting": "[6]", "value": 0.033, "unit": "nM"},
      {"measurement": "inhibition of Kv1.3 current and selectivity over Kv1.1 by IonWorks", "setting": "[2]", "value": "potent inhibition of the Kv1.3 current and improved selectivity over Kv1.1"}
    ]},
    {"compound": "E. coli-derived ShK[2-35]-L-Fc", "values": [
      {"measurement": "IC50", "setting": "[2]; read-out: Kv1.3 IC50 by IWQ", "value": 4.9, "unit": "nM"}
    ]}
  ]
}
